Patent US20210045385A1, “PYRIDAZINONE-SUBSTITUTED KETOXIMES AS HERBICIDES” (FMC Corporation, priority 2018, published 2021)

Key:
Format in all cases: in vivo
[1] = tested on: Italian ryegrass (Lolium multiflorum); assay: Test A preemergence, visual plant response rating; settings: for Ryegrass, Italian plant response rating: 125 g ai/ha, preemergence, 0 to 100 scale, 0 no effect, 100 complete control; for Ryegrass, Italian plant response rating (0 to 100 scale): 500 g ai/ha Preemergence, approx. 10 days
Summary of the method: (§1)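 Greenhouse pot test in loam–sand soil mix: compound in a surfactant-containing non-phytotoxic solvent applied preemergence (directed soil spray) or postemergence (one- to two-leaf plants, 2–10 cm). Injury scored visually after ~10 days, 0–100.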

[2] = tested on: barnyardgrass (Echinochloa crus-galli); assay: Test A preemergence, visual plant response rating; settings: for Barnyardgrass plant response rating: 125 g ai/ha, preemergence, 0 to 100 scale, 0 no effect, 100 complete control; for Barnyardgrass plant response rating (0 to 100 scale): 500 g ai/ha Preemergence, approx. 10 days
Summary of the method: as §1

[3] = tested on: foxtail, giant (giant foxtail, Setaria faberii); assay: Test A preemergence, visual plant response rating; settings: for Foxtail, Giant plant response rating: 125 g ai/ha, preemergence, 0 to 100 scale, 0 no effect, 100 complete control; for Foxtail, Giant plant response rating (0 to 100 scale): 500 g ai/ha Preemergence, approx. 10 days
Summary of the method: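 Compared with untreated controls, treated plants received a visual injury score on a 0–100 scale around 10 days after application. The compound, in a non-phytotoxic solvent with surfactant, was given as a preemergence soil spray or postemergence at the one- to two-leaf stage.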

kochia (Kochia scoparia) [4] = assay: Test A preemergence, visual plant response rating; settings: for Kochia plant response rating: 125 g ai/ha, preemergence, 0 to 100 scale, 0 no effect, 100 complete control; for Kochia plant response rating (0 to 100 scale): 500 g ai/ha Preemergence, approx. 10 days
Summary of the method: as §1

[5] = tested on: pigweed (Amaranthus retroflexus); assay: Test A preemergence, visual plant response rating; settings: for Pigweed plant response rating: 125 g ai/ha, preemergence, 0 to 100 scale, 0 no effect, 100 complete control; for Pigweed plant response rating (0 to 100 scale): 500 g ai/ha Preemergence, approx. 10 days
Summary of the method: as §1

[6] = tested on: ragweed (common ragweed, Ambrosia elatior); assay: Test A preemergence, visual plant response rating; settings: for Ragweed plant response rating: 125 g ai/ha, preemergence, 0 to 100 scale, 0 no effect, 100 complete control; for Ragweed plant response rating (0 to 100 scale): 500 g ai/ha Preemergence, approx. 10 days
Summary of the method: as §1

[7] = tested on: Italian ryegrass (Lolium multiflorum); assay: Test A postemergence, visual plant response rating; settings: for Ryegrass, Italian plant response rating (0 to 100 scale): 500 g ai/ha, postemergence, 0 is no effect, 100 is complete control; for Ryegrass, Italian plant response rating: Postemergence, 125 g ai/ha, 0 to 100 scale (0 no effect, 100 complete control)
Summary of the method: as §1

[8] = tested on: barnyardgrass (Echinochloa crus-galli); assay: Test A postemergence, visual plant response rating; settings: for Barnyardgrass plant response rating (0 to 100 scale): 500 g ai/ha, postemergence, 0 is no effect, 100 is complete control; for Barnyardgrass plant response rating: Postemergence, 125 g ai/ha, 0 to 100 scale (0 no effect, 100 complete control)
Summary of the method: as §1

[9] = tested on: blackgrass (Alopecurus myosuroides); assay: Test A postemergence, visual plant response rating; settings: for Blackgrass plant response rating (0 to 100 scale): 500 g ai/ha, postemergence, 0 is no effect, 100 is complete control; for Blackgrass plant response rating: Postemergence, 125 g ai/ha, 0 to 100 scale (0 no effect, 100 complete control)
Summary of the method: as §1

corn (Zea mays) = assay: Test A postemergence, visual plant response rating; settings: for Corn plant response rating (0 to 100 scale): 500 g ai/ha, postemergence, 0 is no effect, 100 is complete control; for Corn plant response rating: Postemergence, 125 g ai/ha, 0 to 100 scale (0 no effect, 100 complete control)
Summary of the method: as §1

[10] = tested on: foxtail, giant (giant foxtail, Setaria faberii); assay: Test A postemergence, visual plant response rating; settings: for Foxtail, Giant plant response rating (0 to 100 scale): 500 g ai/ha, postemergence, 0 is no effect, 100 is complete control; for Foxtail, Giant plant response rating: Postemergence, 125 g ai/ha, 0 to 100 scale (0 no effect, 100 complete control)
Summary of the method: as §1

[11] = tested on: galium (catchweed bedstraw, Galium aparine); assay: Test A postemergence, visual plant response rating; settings: for Galium plant response rating (0 to 100 scale): 500 g ai/ha, postemergence, 0 is no effect, 100 is complete control; for Galium plant response rating: Postemergence, 125 g ai/ha, 0 to 100 scale (0 no effect, 100 complete control)
Summary of the method: as §1

kochia (Kochia scoparia) [12] = assay: Test A postemergence, visual plant response rating; settings: for Kochia plant response rating (0 to 100 scale): 500 g ai/ha, postemergence, 0 is no effect, 100 is complete control; for Kochia plant response rating: Postemergence, 125 g ai/ha, 0 to 100 scale (0 no effect, 100 complete control)
Summary of the method: as §1

[13] = tested on: pigweed (Amaranthus retroflexus); assay: Test A postemergence, visual plant response rating; settings: for Pigweed plant response rating (0 to 100 scale): 500 g ai/ha, postemergence, 0 is no effect, 100 is complete control; for Pigweed plant response rating: Postemergence, 125 g ai/ha, 0 to 100 scale (0 no effect, 100 complete control)
Summary of the method: as §1

[14] = tested on: ragweed (common ragweed, Ambrosia elatior); assay: Test A postemergence, visual plant response rating; settings: for Ragweed plant response rating (0 to 100 scale): 500 g ai/ha, postemergence, 0 is no effect, 100 is complete control; for Ragweed plant response rating: Postemergence, 125 g ai/ha, 0 to 100 scale (0 no effect, 100 complete control)
Summary of the method: as §1

[15] = tested on: wheat (Triticum aestivum); assay: Test A postemergence, visual plant response rating; settings: for Wheat plant response rating (0 to 100 scale): 500 g ai/ha, postemergence, 0 is no effect, 100 is complete control; for Wheat plant response rating: Postemergence, 125 g ai/ha, 0 to 100 scale (0 no effect, 100 complete control)
Summary of the method: as §1

[16] = tested on: barnyardgrass (Echinochloa crus-galli); assay: Test B flooded paddy test, visual plant response rating; settings: 250 g ai/ha, Flood, applied to paddy water, 2-leaf stage, evaluated after 13 to 15 days
Summary of the method: (§2)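 Greenhouse paddy conditions applied: two-leaf plants, a 3 cm flood above the soil surface maintained throughout, and compound added to the water rather than the foliage. Plants were judged visually against controls at 13 to 15 days.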

[17] = tested on: ducksalad (Heteranhera limosa); assay: as above; settings: 250 g ai/ha, Flood, applied to paddy water, 2-leaf stage, evaluated after 13 to 15 days
Summary of the method: as §2

rice (Oryza sativa) = assay: as above; settings: 250 g ai/ha, Flood, applied to paddy water, 2-leaf stage, evaluated after 13 to 15 days
Summary of the method: as §2

[18] = tested on: sedge, umbrella (small-flower umbrella sedge, Cyperus difformis); assay: as above; settings: 250 g ai/ha, Flood, applied to paddy water, 2-leaf stage, evaluated after 13 to 15 days
Summary of the method: as §2

## CO/N=C(/c1ccccc1C(C)C)c1c(O)c(C)nn(C)c1=O [Compound 93]
[1]
  Ryegrass, Italian plant response rating: 20
  Ryegrass, Italian plant response rating (0 to 100 scale): 70
[2]
  Barnyardgrass plant response rating: 0
  Barnyardgrass plant response rating (0 to 100 scale): 50
[3]
  Foxtail, Giant plant response rating: 10
  Foxtail, Giant plant response rating (0 to 100 scale): 30
Kochia (Kochia scoparia) [4]
  Kochia plant response rating: 0
  Kochia plant response rating (0 to 100 scale): 0
[5]
  Pigweed plant response rating: 0
  Pigweed plant response rating (0 to 100 scale): 20
[6]
  Ragweed plant response rating: 0
  Ragweed plant response rating (0 to 100 scale): 0
[7]
  Ryegrass, Italian plant response rating (0 to 100 scale): 80
  Ryegrass, Italian plant response rating: 40
[8]
  Barnyardgrass plant response rating (0 to 100 scale): 20
  Barnyardgrass plant response rating: 10
[9]
  Blackgrass plant response rating (0 to 100 scale): 70
  Blackgrass plant response rating: 0
Corn (Zea mays)
  Corn plant response rating (0 to 100 scale): 10
  Corn plant response rating: 10
[10]
  Foxtail, Giant plant response rating (0 to 100 scale): 40
  Foxtail, Giant plant response rating: 30
[11]
  Galium plant response rating (0 to 100 scale): 70
  Galium plant response rating: 60
Kochia (Kochia scoparia) [12]
  Kochia plant response rating (0 to 100 scale): 30
  Kochia plant response rating: 0
[13]
  Pigweed plant response rating (0 to 100 scale): 80
  Pigweed plant response rating: 50
[14]
  Ragweed plant response rating (0 to 100 scale): 50
  Ragweed plant response rating: 10
[15]
  Wheat plant response rating (0 to 100 scale): 10
  Wheat plant response rating: 0
[16]
  Plant response rating, Barnyardgrass (0 to 100 scale, 0 is no effect, 100 is complete control): 0
[17]
  Plant response rating, Ducksalad (0 to 100 scale, 0 is no effect, 100 is complete control): 65
Rice (Oryza sativa)
  Plant response rating, Rice (0 to 100 scale, 0 is no effect, 100 is complete control): 0
[18]
  Plant response rating, Sedge, Umbrella (0 to 100 scale, 0 is no effect, 100 is complete control): 0

## CO/N=C(\c1ccccc1C(C)C)c1c(O)c(C)nn(C)c1=O [Compound 94]
[1]
  Ryegrass, Italian plant response rating: 50
  Ryegrass, Italian plant response rating (0 to 100 scale): 90
[2]
  Barnyardgrass plant response rating: 10
  Barnyardgrass plant response rating (0 to 100 scale): 50
[3]
  Foxtail, Giant plant response rating: 20
  Foxtail, Giant plant response rating (0 to 100 scale): 60
Kochia (Kochia scoparia) [4]
  Kochia plant response rating: 0
  Kochia plant response rating (0 to 100 scale): 10
[5]
  Pigweed plant response rating: 10
  Pigweed plant response rating (0 to 100 scale): 70
[6]
  Ragweed plant response rating: 10
  Ragweed plant response rating (0 to 100 scale): 70
[7]
  Ryegrass, Italian plant response rating (0 to 100 scale): 80
  Ryegrass, Italian plant response rating: 30
[8]
  Barnyardgrass plant response rating (0 to 100 scale): 30
  Barnyardgrass plant response rating: 20
[9]
  Blackgrass plant response rating (0 to 100 scale): 80
  Blackgrass plant response rating: 20
Corn (Zea mays)
  Corn plant response rating (0 to 100 scale): 20
  Corn plant response rating: 10
[10]
  Foxtail, Giant plant response rating (0 to 100 scale): 70
  Foxtail, Giant plant response rating: 40
[11]
  Galium plant response rating (0 to 100 scale): 70
  Galium plant response rating: 60
Kochia (Kochia scoparia) [12]
  Kochia plant response rating (0 to 100 scale): 60
  Kochia plant response rating: 20
[13]
  Pigweed plant response rating (0 to 100 scale): 80
  Pigweed plant response rating: 50
[14]
  Ragweed plant response rating (0 to 100 scale): 70
  Ragweed plant response rating: 50
[15]
  Wheat plant response rating (0 to 100 scale): 40
  Wheat plant response rating: 0
[16]
  Plant response rating, Barnyardgrass (0 to 100 scale, 0 is no effect, 100 is complete control): 0
[17]
  Plant response rating, Ducksalad (0 to 100 scale, 0 is no effect, 100 is complete control): 0
Rice (Oryza sativa)
  Plant response rating, Rice (0 to 100 scale, 0 is no effect, 100 is complete control): 0
[18]
  Plant response rating, Sedge, Umbrella (0 to 100 scale, 0 is no effect, 100 is complete control): 0
